“Also recorded” adds a separate entry of the source. Counter-ions that a name gives are not always drawn.
Experiments:
Type in all cases: physicochemical
[1] = High pressure property test (XRPD after pressing); settings: pressed at 10 MPa for 5 minutes, 13 mm die
[2] = Influencing factors stability test (high temperature, high humidity, lighting; XRPD, HPLC, appearance); settings: for Purity: HPLC
Method: The petri dishes were then transferred into constant temperature and humidity chambers under three different conditions: high temperature (60 °C, sealed), high relative humidity (RH: 90 ± 5%, 25 °C, open), and lighting (5000 ± 500 Lux, open). The samples were tested on Day 5 and Day 10.

[3] = Simulated granulation test (ethanol wetting and grinding, XRPD); settings: wetted with ethanol, then ground
Method: The resulting solid and the sample without the addition of wetting ethanol were analyzed by XRPD, respectively.

[4] = Hygroscopicity by Dynamic Vapor Sorption (DVS)
Method: [table] […] The sample, after DVS testing, was then analyzed by XRPD. Table 8 DVS test results of sodium salts

[5] = Day 5, High humidity (RH 90 ± 5%, 25 °C, open)
[6] = Day 5, High temperature (60 °C, sealed)
[7] = Day 5, Lighting (5000 ± 500 Lux, open)
[8] = Day 10, High humidity (RH 90 ± 5%, 25 °C, open)
[9] = Day 10, High temperature (60 °C, sealed)
[10] = Day 10, Lighting (5000 ± 500 Lux, open)

crystal form after the high-pressure test (XRPD) [1]: did not change
Property ([2]; Day 0): off-white solid
XRPD ([2]; Day 0): Crystal Form A
Purity ([2]; Day 0): 99.57%
Property [2, 5]: off-white solid
XRPD [2, 5]: Crystal Form A
Purity [2, 5]: 99.64%
Property [2, 6]: off-white solid
XRPD [2, 6]: Crystal Form A
Purity [2, 6]: 99.69%
Property [2, 7]: off-white solid
XRPD [2, 7]: Crystal Form A
Purity [2, 7]: 99.68%
Property [2, 8]: off-white solid
XRPD [2, 8]: Crystal Form A
Purity [2, 8]: 99.72%
Property [2, 9]: off-white solid
XRPD [2, 9]: Crystal Form A
Purity [2, 9]: 99.72%
Property [2, 10]: off-white solid
XRPD [2, 10]: Crystal Form A
Purity [2, 10]: 99.72%
change in crystal form after ethanol wetting and grinding (XRPD) [3]: did not exhibit a change in crystal form
weight gain at 80% relative humidity (RH) ([4]; DVS, 80% RH, 25°C): 0.69%
Adsorption ([4]; Relative humidity 0%, adsorption (cycle 1 of 2), 25°C): 0.0000%
Adsorption ([4]; Relative humidity 0%, adsorption (cycle 2 of 2), 25°C): -0.0471%
Desorption ([4]; Relative humidity 0%, desorption (cycle 2 of 2), 25°C): -0.0614%
Desorption ([4]; Relative humidity 0%, first desorption (cycle 1 of 2), 25°C): -0.0471%
Adsorption ([4]; Relative humidity 10%, adsorption (cycle 1 of 2), 25°C): 0.0668%
Adsorption ([4]; Relative humidity 10%, adsorption (cycle 2 of 2), 25°C): 0.0230%
Desorption ([4]; Relative humidity 10%, desorption (cycle 2 of 2), 25°C): 0.0147%
Desorption ([4]; Relative humidity 10%, first desorption (cycle 1 of 2), 25°C): 0.0285%
Adsorption ([4]; Relative humidity 20%, adsorption (cycle 1 of 2), 25°C): 0.1197%
Adsorption ([4]; Relative humidity 20%, adsorption (cycle 2 of 2), 25°C): 0.0818%
Desorption ([4]; Relative humidity 20%, desorption (cycle 2 of 2), 25°C): 0.0758%
Desorption ([4]; Relative humidity 20%, first desorption (cycle 1 of 2), 25°C): 0.0891%
Adsorption ([4]; Relative humidity 30%, adsorption (cycle 1 of 2), 25°C): 0.1725%
Adsorption ([4]; Relative humidity 30%, adsorption (cycle 2 of 2), 25°C): 0.1394%
Desorption ([4]; Relative humidity 30%, desorption (cycle 2 of 2), 25°C): 0.1373%
Desorption ([4]; Relative humidity 30%, first desorption (cycle 1 of 2), 25°C): 0.1498%
Adsorption ([4]; Relative humidity 40%, adsorption (cycle 1 of 2), 25°C): 0.2282%
Adsorption ([4]; Relative humidity 40%, adsorption (cycle 2 of 2), 25°C): 0.2001%
Desorption ([4]; Relative humidity 40%, desorption (cycle 2 of 2), 25°C): 0.2149%
Desorption ([4]; Relative humidity 40%, first desorption (cycle 1 of 2), 25°C): 0.2239%
Adsorption ([4]; Relative humidity 50%, adsorption (cycle 1 of 2), 25°C): 0.2857%
Adsorption ([4]; Relative humidity 50%, adsorption (cycle 2 of 2), 25°C): 0.2641%
Desorption ([4]; Relative humidity 50%, desorption (cycle 2 of 2), 25°C): 0.3200%
Desorption ([4]; Relative humidity 50%, first desorption (cycle 1 of 2), 25°C): 0.3320%
Adsorption ([4]; Relative humidity 60%, adsorption (cycle 1 of 2), 25°C): 0.3539%
Adsorption ([4]; Relative humidity 60%, adsorption (cycle 2 of 2), 25°C): 0.3365%
Desorption ([4]; Relative humidity 60%, desorption (cycle 2 of 2), 25°C): 0.5185%
Desorption ([4]; Relative humidity 60%, first desorption (cycle 1 of 2), 25°C): 0.5250%
Adsorption ([4]; Relative humidity 70%, adsorption (cycle 1 of 2), 25°C): 0.5505%
Adsorption ([4]; Relative humidity 70%, adsorption (cycle 2 of 2), 25°C): 0.5627%
Desorption ([4]; Relative humidity 70%, desorption (cycle 2 of 2), 25°C): 0.6037%
Desorption ([4]; Relative humidity 70%, first desorption (cycle 1 of 2), 25°C): 0.6126%
Adsorption ([4]; Relative humidity 80%, adsorption (cycle 1 of 2), 25°C): 0.6895%
Adsorption ([4]; Relative humidity 80%, adsorption (cycle 2 of 2), 25°C): 0.6928%
Desorption ([4]; Relative humidity 80%, desorption (cycle 2 of 2), 25°C): 0.7082%
Desorption ([4]; Relative humidity 80%, first desorption (cycle 1 of 2), 25°C): 0.7176%
Adsorption ([4]; Relative humidity 90%, adsorption (cycle 1 of 2), 25°C): 0.9012%
Adsorption ([4]; Relative humidity 90%, adsorption (cycle 2 of 2), 25°C): 0.8889%
Desorption ([4]; Relative humidity 90%, desorption (cycle 2 of 2), 25°C): 0.8889%
Desorption ([4]; Relative humidity 90%, first desorption (cycle 1 of 2), 25°C): 0.9012%
SMILES: C[C@H]1N2C(=O)c3c(O)c(=O)c(C(=O)NCc4ccc(F)cc4F)cn3C[C@@H]2OCC12CC2 [Sodium salt crystal form A]
After DVS testing Crystal form change ([4]; XRPD after DVS testing): did not change; also recorded: Crystal form A, unchanged

Reference: patent EP4729522A1, “CRYSTAL FORMS OF SODIUM SALT OF POLYCYCLIC CARBAMOYLPYRIDONE DERIVATIVE, AND PREPARATION METHOD THEREFOR AND USE THEREOF” (Jiangsu Aidea Pharmaceutical Group Co., Ltd., priority 2023, dated 2024)
